These results are taken from ChEMBL document CHEMBL1955745, “Synthesis and in vitro antitumor activity of asperphenamate derivatives as autophagy inducer” (Bioorg Med Chem Lett, 2012).

One series concerns HeLa. Put plainly: Antiproliferative activity against human HeLa cells after 3 days by MTT assay. The class given is functional, cell-based. The note with it: 72 h. In general terms: Tetrazolium dyes change colour on reduction, which living cells bring about.
Another series has as its system Bel-7402. The series can be described thus: Antiproliferative activity against human Bel7402 cells after 3 days by MTT assay. Format: functional, cell-based. The note with it: Bel-7402, 72 h.
The next series has as its system MCF7. Put plainly: Antiproliferative activity against human MCF7 cells after 3 days by MTT assay. Format: functional, cell-based. The note with it: MCF7, 72 h.
A short description of series [1]: Thermodynamic solubility of the compound in phosphate buffer at pH 7.4 at 1 mg after 10 mins by HPLC -UV analysis. Format: physicochemical. To be noted: read-out: Therm_solubility.

Values after ≈ are worked out from the molar mass of the structure shown.

For the compound `CC(=O)N[C@H](Cc1ccccc1)C(=O)OC[C@@H](Cc1ccccc1)NC(=O)c1ccccc1`, the IC50 in the series on HeLa, in the series with Bel-7402 and in the series with MCF7 was greater than 100 µM in each case.

`CC(=O)N[C@H](COC(=O)[C@@H](Cc1ccccc1)NC(=O)c1ccccc1)Cc1ccccc1`: the IC50 with HeLa is greater than 100 µM; in the series on Bel-7402, 89 µM; with MCF7, 79.5 µM. In series [1], the solubility thermodynamic at 10 min was found to be 79.7 µg/mL (≈ 179 µM).

With `O=C(N[C@H](COC(=O)[C@H](Cc1ccccc1)NC(=O)c1cccc(O)c1)Cc1ccccc1)c1ccccc1`, the IC50 in the series on HeLa, with Bel-7402 and in the series with MCF7 was greater than 100 µM throughout. For the same compound, in series [1], the solubility thermodynamic at 10 min stood at 1590 µg/mL (≈ 3040 µM).

As to `O=C(N[C@@H](COC(=O)[C@H](Cc1ccccc1)NC(=O)c1cccc(O)c1)Cc1ccccc1)c1ccccc1`, the IC50 in the series with HeLa, in the series with Bel-7402 and in the series on MCF7 was greater than 100 µM each time.

For `C[C@@H](NC(=O)c1ccccc1)C(=O)OC[C@@H](Cc1ccccc1)NC(=O)c1ccccc1`, the concentration for half-maximal inhibition (IC50) in the series with HeLa, in the series on Bel-7402 and in the series with MCF7 was greater than 100 µM in each case.

As to `O=C(N[C@@H](COC(=O)[C@@H](Cc1ccccc1)NC(=O)c1ccccc1)Cc1ccccc1)c1ccccc1`, the IC50 in the series on HeLa, with Bel-7402 and in the series on MCF7 was greater than 100 µM each time.

For the compound `O=C(N[C@H](COC(=O)[C@H](Cc1ccccc1)NC(=O)c1ccc(O)cc1)Cc1ccccc1)c1ccccc1`, the IC50 with HeLa, with Bel-7402 and in the series on MCF7 was greater than 100 µM throughout. In addition, in series [1], the solubility thermodynamic at 10 min amounted to 370 µg/mL (≈ 709 µM).

For the compound `O=C(N[C@H](COC(=O)[C@@H](Cc1ccccc1)NC(=O)c1ccccc1O)Cc1ccccc1)c1ccccc1`, the values for the concentration for half-maximal inhibition (IC50) in the series with HeLa, in the series with Bel-7402 and in the series on MCF7 were 15.2 µM, 14.5 µM and 11.9 µM, respectively. Further, the solubility thermodynamic at 10 min in series [1] amounted to 77.4 µg/mL (≈ 148 µM).

Regarding `CC(=O)N[C@@H](Cc1ccccc1)C(=O)OC[C@@H](Cc1ccccc1)NC(=O)c1ccccc1`, the IC50 in the series on HeLa, in the series on Bel-7402 and in the series on MCF7 was greater than 100 µM throughout.

With `CC(=O)N[C@H](Cc1ccccc1)C(=O)OC[C@H](Cc1ccccc1)NC(=O)c1ccccc1`, the concentration for half-maximal inhibition (IC50) in the series with HeLa came out at 56.4 µM; in the series on Bel-7402 it was 69.8 µM; with MCF7 it was 79.9 µM. Also, in series [1], the solubility thermodynamic at 10 min came out at 207 µg/mL (≈ 466 µM).

For the compound `C[C@@H](COC(=O)[C@H](Cc1ccccc1)NC(=O)c1ccccc1)NC(=O)c1ccccc1`, the IC50 with HeLa, in the series on Bel-7402 and with MCF7 was greater than 100 µM in each case. Besides, the solubility thermodynamic at 10 min in series [1] worked out at 513 µg/mL (≈ 1190 µM).

In the case of `O=C(Cc1ccc(O)cc1)N[C@H](Cc1ccccc1)C(=O)OC[C@H](Cc1ccccc1)NC(=O)c1ccccc1`, the 50% inhibitory concentration (IC50) with HeLa, in the series on Bel-7402 and with MCF7 was greater than 100 µM throughout. The solubility thermodynamic at 10 min in series [1] came out at 295 µg/mL (≈ 550 µM).

Consider `O=C(Cc1ccccc1OCc1ccccc1)N[C@H](Cc1ccccc1)C(=O)OC[C@H](Cc1ccccc1)NC(=O)c1ccccc1`, for which the IC50 turned out to be 25.5 µM in the series with HeLa, 37.8 µM in the series on Bel-7402 and 28.8 µM in the series with MCF7. Besides, the solubility thermodynamic at 10 min in series [1] was found to be 135 µg/mL (≈ 216 µM).

On to `O=C(N[C@H](COC(=O)[C@@H](Cc1ccccc1)NC(=O)c1ccc(O)cc1)Cc1ccccc1)c1ccccc1`, for which the IC50 is 59 µM in the series with HeLa, 68.7 µM with Bel-7402 and 53.2 µM in the series with MCF7. The solubility thermodynamic at 10 min in series [1] was determined as 302 µg/mL (≈ 578 µM).

Regarding `C[C@H](COC(=O)[C@@H](Cc1ccccc1)NC(=O)c1ccccc1)NC(=O)c1ccccc1`, the IC50 in the series on HeLa, with Bel-7402 and in the series on MCF7 was greater than 100 µM each time.

With `O=C(Cc1ccccc1O)N[C@H](Cc1ccccc1)C(=O)OC[C@@H](Cc1ccccc1)NC(=O)c1ccccc1`, the IC50 in the series on HeLa was determined as 19.5 µM; with Bel-7402 it was 29.7 µM; in the series with MCF7 it was 18.4 µM.

For `O=C(Cc1ccccc1O)N[C@@H](Cc1ccccc1)C(=O)OC[C@@H](Cc1ccccc1)NC(=O)c1ccccc1`, the IC50 came to 27.9 µM with HeLa, 33.6 µM with Bel-7402 and 39.2 µM with MCF7.

For `CC(=O)N[C@@H](COC(=O)[C@H](Cc1ccccc1)NC(=O)c1ccccc1)Cc1ccccc1`, the IC50 with HeLa, in the series with Bel-7402 and with MCF7 was greater than 100 µM each time.

As to `O=C(Cc1ccc(O)cc1)N[C@H](Cc1ccccc1)C(=O)OC[C@@H](Cc1ccccc1)NC(=O)c1ccccc1`, the IC50 in the series with HeLa was determined as 42.8 µM; with Bel-7402, 70.9 µM; in the series with MCF7, 52.5 µM.

Turning to `O=C(N[C@@H](COC(=O)[C@@H](Cc1ccccc1)NC(=O)c1cccc(O)c1)Cc1ccccc1)c1ccccc1`, the IC50 came to 63.4 µM in the series with HeLa, 49.9 µM in the series on Bel-7402 and 55.3 µM with MCF7.

Take `O=C(Cc1ccc(O)cc1)N[C@@H](Cc1ccccc1)C(=O)OC[C@@H](Cc1ccccc1)NC(=O)c1ccccc1`: the IC50 with HeLa, in the series on Bel-7402 and with MCF7 was greater than 100 µM in each case.

With `C[C@H](COC(=O)[C@H](Cc1ccccc1)NC(=O)c1ccccc1)NC(=O)c1ccccc1`, the IC50 in the series on HeLa, in the series on Bel-7402 and with MCF7 was greater than 100 µM each time.

With `O=C(N[C@@H](COC(=O)[C@H](Cc1ccccc1)NC(=O)c1ccccc1O)Cc1ccccc1)c1ccccc1`, the values for the half-inhibitory concentration (IC50) in the series on HeLa, in the series with Bel-7402 and with MCF7 were 42.5 µM, 41.2 µM and 42.4 µM, respectively.

Turning to `C[C@H](NC(=O)c1ccccc1)C(=O)OC[C@@H](Cc1ccccc1)NC(=O)c1ccccc1`, the IC50 in the series with HeLa, with Bel-7402 and in the series with MCF7 was greater than 100 µM throughout.

As to `O=C(N[C@@H](COC(=O)[C@@H](Cc1ccccc1)NC(=O)c1ccccc1O)Cc1ccccc1)c1ccccc1`, the IC50 is 42.9 µM with HeLa, 38.1 µM in the series with Bel-7402 and 36.3 µM in the series with MCF7.

As to `O=C(N[C@@H](COC(=O)[C@@H](Cc1ccccc1)NC(=O)c1ccccc1OCc1ccccc1)Cc1ccccc1)c1ccccc1`, the IC50 in the series with HeLa was determined as 54.4 µM; with Bel-7402, 41.1 µM; in the series with MCF7 it was 70.3 µM.

As to `O=C(N[C@@H](COC(=O)[C@H](Cc1ccccc1)NC(=O)c1ccccc1OCc1ccccc1)Cc1ccccc1)c1ccccc1`, the half-inhibitory concentration (IC50) with HeLa was found to be 72.5 µM; in the series with Bel-7402 it was 71.7 µM; in the series on MCF7, 85.8 µM.

Regarding `O=C(N[C@@H](COC(=O)[C@H](Cc1ccccc1)NC(=O)c1ccccc1)Cc1ccccc1)c1ccccc1`, the IC50 in the series on HeLa, with Bel-7402 and in the series with MCF7 was greater than 100 µM in each case.

As to `CC(=O)N[C@@H](COC(=O)[C@@H](Cc1ccccc1)NC(=O)c1ccccc1)Cc1ccccc1`, the IC50 with HeLa, in the series on Bel-7402 and in the series with MCF7 was greater than 100 µM throughout.

Take `O=C(N[C@@H](COC(=O)[C@@H](Cc1ccccc1)NC(=O)c1ccc(O)cc1)Cc1ccccc1)c1ccccc1`: the IC50 in the series with HeLa is 52.1 µM; in the series on Bel-7402 it was 51.4 µM; in the series on MCF7, 32.8 µM.

Turning to `O=C(N[C@@H](COC(=O)[C@H](Cc1ccccc1)NC(=O)c1ccc(O)cc1)Cc1ccccc1)c1ccccc1`, the IC50 came to 62.9 µM with HeLa, 55.6 µM in the series on Bel-7402 and 59.7 µM with MCF7.

For the compound `O=C(Cc1ccccc1OCc1ccccc1)N[C@@H](Cc1ccccc1)C(=O)OC[C@@H](Cc1ccccc1)NC(=O)c1ccccc1`, the IC50 stood at 58.8 µM in the series on HeLa, 70.6 µM in the series with Bel-7402 and 28.2 µM in the series on MCF7.

In general, IC50 refers to the midpoint of a concentration-inhibition curve. A higher IC50 goes with lower potency.
